Data published in US20180110780A1, “AGENT FOR ALLEVIATING SIDE EFFECT OF ANTITUMOR DRUG” (TAIHO PHARMACEUTICAL CO., LTD., priority 2015, published 2018).

Test system: BALB/cA Jcl-nu mice transplanted with human lung cancer cell line NCI-H441
Assay: Toxicity alleviating effect against pemetrexed in tumor-bearing mouse
Settings: deaths/animals during the test, pemetrexed 50 mg/kg/day, Compound 1 600 mg/kg/day
Method: Cells of a human lung cancer cell line, NCI-H441, were suspended in a PBS containing 50% [sequence], and the suspension was transplanted subcutaneously into the right-side chest of each of 8-week old BALB/cA Jcl-nu mice (Crea-Japan, Inc.) in an amount of 5×10^6 cells/0.1 mL/body. At the time when the average tumor volume after grouping became more than 100 mm^3, the major axis and the minor axis of the tumor were measured, and grouping was performed such that there would be no fluctuations in the tumor volumes of the various groups (6 animals per group). Furthermore, the mice were maintained under conditions of low-folic acid feed breeding from the age of 5 weeks to the day of test completion.
Pemetrexed (manufactured by LC Laboratories, Inc.) was dissolved in physiological saline, and the solution was administered through the caudal vein on Day 1, which was the day after the day of grouping, and on Day 8, which was one week thereafter. Furthermore, Compound 1 was suspended in a 0.5% aqueous solution of hydroxypropylmethyl cellulose, and the suspension was orally administered once a day for 14 consecutive days from the day after the day of grouping. […]
After grouping, the body weights (BW) were measured twice a week, and the rate of bodyweight change (bodyweight change; BWC) was calculated by the following formula, the toxicity alleviating effect was evaluated. […]

## Nc1nc2[nH]cc(CCc3ccc(C(=O)N[C@@H](CCC(=O)O)C(=O)O)cc3)c2c(=O)[nH]1 [Pemetrexed]
  No. of Death: 1/6
Listed as pemetrexed
  No. of Death: one death case out of six animals
